Source: US8145437B2, “System and method to obtain oligo-peptides with specific high affinity to query proteins” (priority 2005, dated 2012)

B1: TARGET TEMPLATE to … (GAL4 17-31AA): Target oligo template pool, 1st and 3rd codon letters reverse-complementary to Gal4 coding sequence 17-31, 2nd letter undefined (nucleic acid)
DNA: GGATCCATGANTCNTGNCANGGNCTNCTNGANGANAANTCNGTNGANATNGCNGATTCGGCCGC
modifications: listed as DNA, chemistry not fully specified; the letters are possibly those of the target site
B2: prolactin (protein, UniProt P01236 29-227, looked up)
Prolactin: LPICPGGAARCQVTLRDLFDRAVVLSHYIHNLSSEMFSEFDKRYTHGRGFITKAINSCHTSSLATPEDKEQAQQMNQKDFLSLIVSILRSWNEPLYHLVTEVRGMQEAPEAILSKAVEIEEQTKRLLEGMELIVSQVHPETKENEIYPVWSGLPSLQMADEESRLSAYYNLLHCLRRDSHKIDNYLKLLKCRIIHNNNC

Tests used:
[1] = test system: GAL4 peptide; experiment: Binding of fluorescent labeled GAL4 peptide to protein extracts of monoclonal clones; settings: other proteins tested even in much higher concentrations
[2] = biological target: T1, dimerisation domain of 1HBW REGULATORY PROTEIN GAL4 (Saccharomyces cerevisiae, UniProt P04386); experiment: BacterioMatch two-hybrid assay with Target Oligo Pool in pTRG vector; assay type: cell-based; settings: ampicillin-resistant reporter
T1 construct: the dimerisation domain of 1HBW REGULATORY PROTEIN GAL4 inserted into pBT (as it is provided and described by Stratagene); host or cells: E. coli BacterioMatch two-hybrid reporter strain (derived from XL1-Blue MRF')
Experimental: The BacterioMatch™ two-hybrid system* (Stratagene, 11011 N. Torrey Pines Road La Jolla, Calif. 92037) was used to Quickly Detect Protein-Protein Interactions designed by the recent Method. It is a simple alternative or complement to yeast two-hybrid systems for in vivo detection of protein-protein interactions. Because the two-hybrid assay is performed in bacteria, results are obtained more easily and quickly than in yeast. The system is based on transcriptional activation of a primary ampicillin-resistant reporter and a secondary β-galactosidase reporter for validation. The BacterioMatch two-hybrid system is based on a methodology developed by Dove, Joung, and Hochschild of Harvard Medical School.
The BacterioMatch two-hybrid system is based on transcriptional activation (FIG. 4). A protein of interest—the bait—is fused to the full-length bacteriophage repressor protein (.lamda.cI). The corresponding target protein is fused to the amino-terminal domain of the α-subunit of RNA polymerase (RNAPα). The bait is tethered to the […] sequence upstream of the reporter promoter through the DNA-binding domain of .lamda.cI. If the bait and target interact, they recruit and stabilize the binding of RNA polymerase close to the promoter and activate the transcription of the ampicillin-resistant reporter gene in the BacterioMatch two-hybrid reporter strain. […]

T1 sequence (P04386 50-106 limits assumed): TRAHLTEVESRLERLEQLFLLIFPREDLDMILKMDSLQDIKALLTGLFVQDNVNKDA

Molecule | competition with binding of labeled GAL4 to the proteins from positive clones [1] | positive bacterial clones growing on double selective medium [2]
Unlabelled GAL4: unlabelled GAL4 peptide, the query, used as competitor of labeled GAL4 (ESRLERLEQLFLLIF) | inhibited | 
growth hormone | ineffective competitors | 
B1 |  | numerous positive bacterial clones
B2 | ineffective competitors | 
